Assay results as given in ChEMBL document CHEMBL3102790, “Synthesis of quercetin glycosides and their melanogenesis stimulatory activity in B16 melanoma cells” (Bioorg Med Chem, 2014).

Columns and labels:
[1] = molecular target: T1, Tyrosinase (Agaricus bisporus) (UniProt O42713); assay: Induction of mushroom tyrosinase activity using L-DOPA as substrate at 200 uM after 30 mins
T1 sequence (whole entry): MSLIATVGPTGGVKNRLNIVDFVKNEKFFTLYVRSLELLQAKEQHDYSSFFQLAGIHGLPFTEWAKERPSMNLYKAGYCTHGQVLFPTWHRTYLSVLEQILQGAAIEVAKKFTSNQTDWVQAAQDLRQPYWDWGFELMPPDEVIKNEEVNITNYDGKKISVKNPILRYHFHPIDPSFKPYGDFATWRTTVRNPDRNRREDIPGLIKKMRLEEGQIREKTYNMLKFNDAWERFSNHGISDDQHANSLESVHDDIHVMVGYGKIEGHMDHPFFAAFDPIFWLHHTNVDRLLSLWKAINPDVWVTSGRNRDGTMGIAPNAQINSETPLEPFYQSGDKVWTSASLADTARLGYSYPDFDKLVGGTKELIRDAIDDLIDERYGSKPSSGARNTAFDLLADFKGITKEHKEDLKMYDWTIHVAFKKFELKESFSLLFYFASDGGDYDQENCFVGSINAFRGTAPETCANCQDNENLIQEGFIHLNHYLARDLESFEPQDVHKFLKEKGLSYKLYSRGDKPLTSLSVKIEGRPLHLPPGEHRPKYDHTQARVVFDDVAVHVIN

B16-F10 [2] = assay: Induction of melanogenesis in mouse B16F10 cells assessed as intracellular melanin level at 10 uM after 72 hrs; assay type: functional
[3] = molecular target: T1, Tyrosinase (Agaricus bisporus); assay: Induction of mushroom tyrosinase activity using L-DOPA as substrate at 100 uM after 30 mins
[4] = Cytotoxicity against mouse B16F10 cells assessed as cell viability at 10 uM by MTT assay; assay type: cell-based, B16-F10; conditions: read-out: Activity
[5] = Cytotoxicity against mouse B16F10 cells assessed as cell viability at 200 uM by MTT assay; assay type: cell-based, B16-F10; conditions: read-out: Activity
[6] = molecular target: T1, Tyrosinase (Agaricus bisporus); assay: Induction of mushroom tyrosinase activity using L-tyrosine as substrate at 100 uM after 30 mins
[7] = molecular target: T1, Tyrosinase (Agaricus bisporus); assay: Induction of mushroom tyrosinase activity using L-tyrosine as substrate at 200 uM after 30 mins
[8] = molecular target: T1, Tyrosinase (Agaricus bisporus); assay: Induction of mushroom tyrosinase activity using L-DOPA as substrate at 50 uM after 30 mins
[9] = Cytotoxicity against mouse B16F10 cells assessed as cell viability at 100 uM by MTT assay; assay type: cell-based, B16-F10; conditions: read-out: Activity
B16-F10 [10] = assay: Induction of melanogenesis in mouse B16F10 cells assessed as intracellular melanin level at 200 uM after 72 hrs; assay type: functional
[11] = molecular target: T1, Tyrosinase (Agaricus bisporus); assay: Induction of mushroom tyrosinase activity using L-tyrosine as substrate at 50 uM after 30 mins
B16-F10 [12] = assay: Induction of melanogenesis in mouse B16F10 cells assessed as intracellular melanin level at 100 uM after 72 hrs; assay type: functional
B16-F10 [13] = assay: Induction of melanogenesis in mouse B16F10 cells assessed as intracellular melanin level at 125 uM after 72 hrs; assay type: functional
[14] = Cytotoxicity against mouse B16F10 cells assessed as cell viability at 500 uM by MTT assay; assay type: cell-based, B16-F10; conditions: read-out: Activity
[15] = Cytotoxicity against mouse B16F10 cells assessed as cell viability at 125 uM by MTT assay; assay type: cell-based, B16-F10; conditions: read-out: Activity
[16] = Cytotoxicity against mouse B16F10 cells assessed as cell viability at 250 uM by MTT assay; assay type: cell-based, B16-F10; conditions: read-out: Activity
B16-F10 [17] = assay: Induction of melanogenesis in mouse B16F10 cells assessed as intracellular melanin level at 250 uM after 72 hrs; assay type: functional
B16-F10 [18] = assay: Induction of melanogenesis in mouse B16F10 cells assessed as intracellular melanin level at 500 uM after 72 hrs; assay type: functional
B16-F10 [19] = assay: Induction of melanogenesis in mouse B16F10 cells assessed as intracellular melanin level after 72 hrs; assay type: functional, cell-based

Compound | Activity [1] [%] | Activity (B16-F10 [2]) [%] | Activity [3] [%] | viability at 10 µM [4] [%] | viability at 200 µM [5] [%] | Activity [6] [%] | Activity [7] [%] | Activity [8] [%] | viability at 100 µM [9] [%] | Activity (B16-F10 [10]) [%] | Activity [11] [%] | Activity (B16-F10 [12]) [%] | Activity (B16-F10 [13]) [%] | viability at 500 µM [14] [%] | viability at 125 µM [15] [%] | viability at 250 µM [16] [%] | Activity (B16-F10 [17]) [%] | Activity (B16-F10 [18]) [%] | Activity (B16-F10 [19])
O=c1c(O[C@@H]2O[C@H](CO)[C@@H](O)[C@H](O)[C@H]2O)c(-c2ccc(O[C@@H]3O[C@H](CO)[C@@H](O[C@@H]4O[C@H](CO)[C@@H](O)[C@H](O)[C@H]4O)[C@H](O)[C@H]3O)c(O)c2)oc2cc(O)cc(O)c12 | 109 | 96.8 | 105 | 97.8 | 106 | 85.2 | 82.4 | 103 | 107 | 96.3 | 88.9 | 90.9 | – | – | – | – | – | – | –
O=c1c(O[C@@H]2O[C@H](CO)[C@@H](O[C@@H]3O[C@H](CO)[C@@H](O)[C@H](O)[C@H]3O)[C@H](O)[C@H]2O)c(-c2ccc(O)c(O)c2)oc2cc(O[C@@H]3O[C@H](CO)[C@@H](O)[C@H](O)[C@H]3O)cc(O)c12 | 104 | 91.1 | 104 | 95.1 | 98.7 | 102 | 104 | 102 | 113 | 119 | 103 | 78.9 | – | – | – | – | – | – | –
O=c1c(O[C@@H]2O[C@H](CO)[C@@H](O)[C@H](O)[C@H]2O)c(-c2ccc(O)c(O)c2)oc2cc(O[C@@H]3O[C@H](CO)[C@@H](O[C@@H]4O[C@H](CO)[C@@H](O)[C@H](O)[C@H]4O)[C@H](O)[C@H]3O)cc(O)c12 | 110 | 91.1 | 105 | 95.1 | 111 | 89 | 85.6 | 108 | 113 | 83.8 | 95.2 | 78.9 | – | – | – | – | – | – | –
Cn1c(=O)c2nc[nH]c2n(C)c1=O.O [THEOPHYLLINE] | – | – | – | – | – | – | – | – | – | – | – | – | 127.6 | 91.4 | 95.5 | 94.4 | 131.7 | 166.8 | –
O=c1c(O[C@@H]2O[C@H](CO)[C@@H](O[C@@H]3O[C@H](CO)[C@@H](O)[C@H](O)[C@H]3O)[C@H](O)[C@H]2O)c(-c2ccc(O)c(O)c2)oc2cc(O)cc(O)c12 | 112 | 102.6 | 107 | 99.6 | 81.1 | 95 | 82.2 | 103 | 93.2 | 176 | 97.5 | 126.8 | – | – | – | – | – | – | Dose-dependent effect
O=c1c(O[C@@H]2O[C@H](CO)[C@@H](O[C@@H]3O[C@H](CO)[C@@H](O)[C@H](O)[C@H]3O)[C@H](O)[C@H]2O)c(-c2ccc(O[C@@H]3O[C@H](CO)[C@@H](O)[C@H](O)[C@H]3O)c(O)c2)oc2cc(O)cc(O)c12 | 101 | 137 | 103 | 90 | 74.8 | 95.9 | 106 | 101 | 86.8 | 190.5 | 105 | 151.5 | – | – | – | – | – | – | Dose-dependent effect
O=c1c(O[C@@H]2O[C@H](CO)[C@@H](O[C@@H]3O[C@H](CO)[C@@H](O)[C@H](O)[C@H]3O)[C@H](O)[C@H]2O)c(-c2ccc(O[C@@H]3O[C@H](CO)[C@@H](O[C@@H]4O[C@H](CO)[C@@H](O)[C@H](O)[C@H]4O)[C@H](O)[C@H]3O)c(O)c2)oc2cc(O)cc(O)c12 | 108 | 79.7 | 103 | 107 | 99.7 | 95 | 97.6 | 107 | 106 | 99.7 | 100 | 84.77 | – | – | – | – | – | – | –
O=c1c(O[C@@H]2O[C@H](CO)[C@@H](O)[C@H](O)[C@H]2O)c(-c2ccc(O)c(O)c2)oc2cc(O[C@@H]3O[C@H](CO)[C@@H](O)[C@H](O)[C@H]3O)cc(O)c12 | 106 | 85 | 103 | 97.7 | 114 | 85.5 | 86.7 | 103 | 78 | 86.5 | 92.8 | 113.9 | – | – | – | – | – | – | –
O=c1c(O[C@@H]2O[C@H](CO)[C@@H](O)[C@H](O)[C@H]2O)c(-c2ccc(O)c(O)c2)oc2cc(O)cc(O)c12 [ISOQUERCETIN] | 116 | 116.3 | 110 | 105 | 68.4 | 96.2 | 104 | 107 | 80.9 | 206.9 | 112 | 157.1 | – | – | – | – | – | – | Dose-dependent effect
O=c1c(O[C@@H]2O[C@H](CO)[C@@H](O[C@@H]3O[C@H](CO)[C@@H](O)[C@H](O)[C@H]3O)[C@H](O)[C@H]2O)c(-c2ccc(O)c(O)c2)oc2cc(O[C@@H]3O[C@H](CO)[C@@H](O[C@@H]4O[C@H](CO)[C@@H](O)[C@H](O)[C@H]4O)[C@H](O)[C@H]3O)cc(O)c12 | 103 | 80.3 | 102 | 105 | 95.2 | 104 | 101 | 101 | 93.9 | 102.6 | 104 | 97.8 | – | – | – | – | – | – | –
O=c1c(O[C@@H]2O[C@H](CO)[C@@H](O)[C@H](O)[C@H]2O)c(-c2ccc(O[C@@H]3O[C@H](CO)[C@@H](O)[C@H](O)[C@H]3O)c(O)c2)oc2cc(O)cc(O)c12 | 99.3 | 89.7 | 99.3 | 107 | 77.4 | 98.8 | 94.3 | 102 | 104 | 92.6 | 101 | 90.4 | – | – | – | – | – | – | –
